Calls of active or inactive are those of the source. The calls are words filed in the database; no cut-off is given here.
Key:
[1] = test system: RAW264.7; experiment: Inhibition of LPS-induced nitric oxide production in mouse RAW264.7 cells preincubated for 1 hr followed by LPS stimulation by Greiss assay; assay type: functional, cell-based
[2] = test system: A-375; experiment: Induction of autophagy in human A375 cells assessed as increase in LC3-2 complex concentration at 65 uM after 6 hrs by Western blot analysis; assay type: functional, cell-based
[3] = test system: Mus musculus; experiment: Antiinflammatory activity in carrageenan-induced Swiss mouse peritonitis model assessed as effect on total number of cells in peritonial cavity at 1 to 10 mg/kg, ip administered 30 mins prior to carrageenan challenge; assay type: functional, organism-based
[4] = test system: Mus musculus; experiment: Antiinflammatory activity in substance p-induced Swiss mouse peritonitis model assessed as decrease in total number of cells in pertonial cavity at 100 mg/kg, ip administered for 30 mins prior to substance-P challenge; assay type: functional
[5] = test system: Mus musculus; experiment: Antiinflammatory activity in bradykinin-induced peritonitis Swiss mouse model assessed as decrease in total number of cells in pertonial cavity at 10 mg/kg, ip administered for 30 mins prior to bradykinin challenge; assay type: functional
[6] = test system: A-375; experiment: Induction of autophagy in human A375 cells assessed as increase in LC3-2 complex concentration at 65 uM after 1 hr by Western blot analysis; assay type: functional, cell-based
[7] = test system: Mus musculus; experiment: Antiinflammatory activity in bradykinin-induced peritonitis Swiss mouse model assessed as decrease in total number of cells in pertonial cavity at 100 mg/kg, ip administered for 30 mins prior to bradykinin challenge; assay type: functional
[8] = test system: Mus musculus; experiment: In vivo inhibition of myeloperoxidase activity in carrageenan-induced Swiss mouse peritonitis model at 1 to 100 mg/kg, ip administered prior to carrageenan challenge for 4hrs; assay type: functional, organism-based
[9] = test system: Mus musculus; experiment: Antiinflammatory activity against bradykinin-induced paw edema in Swiss mouse at 10 mg/kg, ip measured at 15 to 90 mins administered 30 mins prior to bradikynin-challenge by plethysmometric analysis; assay type: functional
[10] = test system: Mus musculus; experiment: Antiinflammatory activity against carrageenan-induced paw edema in Swiss mouse at 100 mg/kg, ip measured at 15 to 90 mins administered 30 mins prior to carrageenan-challenge by plethysmometric analysis; assay type: functional
[11] = test system: Mus musculus; experiment: Antiinflammatory activity against bradykinin-induced paw edema in Swiss mouse at 3 mg/kg, ip measured at 15 to 90 mins administered 30 mins prior to bradikynin-challenge by plethysmometric analysis; assay type: functional
[12] = test system: Mus musculus; experiment: Antiinflammatory activity against carrageenan-induced paw edema in Swiss mouse at 10 mg/kg, ip measured at 15 to 90 mins administered 30 mins prior to carrageenan-challenge by plethysmometric analysis; assay type: functional
[13] = test system: Mus musculus; experiment: Antiinflammatory activity in bradykinin-induced Swiss mouse peritonitis model assessed as decrease in total number of cells in pertonial cavity at 1 mg/kg, ip administered for 30 mins prior to bradykinin challenge; assay type: functional, organism-based
[14] = test system: RAW264.7; experiment: Inhibition of COX2 expression in LPS-stimulated mouse RAW264.7 cells at 12.5 to 50 ug/ml preincubated with the compound followed by LPS stimulation for 24 hrs by Real-Time PCR; assay type: functional, cell-based
[15] = test system: Mus musculus; experiment: Antiinflammatory activity in carrageenan-induced Swiss mouse peritonitis model assessed as decrease in total number of cells in pertonial cavity at 100 mg/kg, ip administered 30 mins prior to carrageenan challenge; assay type: functional; set-up: scale not given: the % may be the effect or the level left
[16] = test system: RAW264.7; experiment: Inhibition of iNOS expression in LPS-stimulated mouse RAW264.7 cells at 12.5 to 50 ug/ml preincubated with the compound followed by LPS stimulation for 24 hrs by Real-Time PCR; assay type: functional, cell-based
[17] = test system: Mus musculus; experiment: Antiinflammatory activity against substance-P-induced paw edema in Swiss mouse at 10 mg/kg, ip measured at 15 to 90 mins administered 30 mins prior to substance p-challenge by plethysmometric analysis; assay type: functional
[18] = test system: Mus musculus; experiment: In vivo inhibition of myeloperoxidase activity in bradykinin-induced Swiss mouse peritonitis model at 1 to 100 mg/kg, ip administered prior to bradykinin challenge for 4hrs; assay type: functional, organism-based
[19] = test system: RAW264.7; experiment: Cytotoxicity against mouse RAW264.7 cells assessed as cell viability at 100 ug/ml after 24 hrs by MTT assay; assay type: cell-based; details: raw264.7, 24 h
[20] = test system: Mus musculus; experiment: Antiinflammatory activity in bradykinin-induced peritonitis ip dosed Swiss mouse model assessed as decrease in total number of cells in pertonial cavity administered for 4 hrs prior to bradykinin challenge; assay type: functional
[21] = test system: Mus musculus; experiment: Antiinflammatory activity against substance-P-induced paw edema in Swiss mouse at 100 mg/kg, ip measured at 15 to 90 mins administered 30 mins prior to substance p-challenge by plethysmometric analysis; assay type: functional
[22] = test system: Mus musculus; experiment: Antiinflammatory activity in substance p-induced Swiss mouse peritonitis model assessed as decrease in total number of cells in pertonial cavity at 1 to 10 mg/kg, ip administered for 30 mins prior to substance-P challenge; assay type: functional, organism-based
[23] = test system: Mus musculus; experiment: Antiinflammatory activity in carrageenan-induced Swiss mouse peritonitis model assessed as decrease in total number of cells in pertonial cavity at 3 mg/kg, ip administered for 4 hrs prior to carrageenan challenge; assay type: functional; set-up: scale not given: the % may be the effect or the level left
[24] = test system: Mus musculus; experiment: Antiinflammatory activity in substance p-induced Swiss mouse peritonitis model assessed as decrease in total number of cells in pertonial cavity at 3 mg/kg, ip administered for 30 mins prior to substance-P challenge; assay type: functional
[25] = test system: Mus musculus; experiment: Antiinflammatory activity against substance-P-induced paw edema in Swiss mouse at 3 mg/kg, ip measured at 15 to 90 mins administered 30 mins prior to substance p-challenge by plethysmometric analysis; assay type: functional
[26] = test system: Mus musculus; experiment: Antiinflammatory activity against bradykinin-induced paw edema in Swiss mouse at 100 mg/kg, ip measured at 15 to 90 mins administered 30 mins prior to bradikynin-challenge by plethysmometric analysis; assay type: functional
[27] = test system: Mus musculus; experiment: Antiinflammatory activity against carrageenan-induced paw edema in Swiss mouse at 3 mg/kg, ip measured at 15 to 90 mins administered 30 mins prior to carrageenan-challenge by plethysmometric analysis; assay type: functional
[28] = test system: Mus musculus; experiment: Antiinflammatory activity in bradykinin-induced peritonitis Swiss mouse model assessed as decrease in total number of cells in pertonial cavity at 3 mg/kg, ip administered for 30 mins prior to bradykinin challenge; assay type: functional

For `COc1cc(/C=C/C(=O)/C=C/c2ccc(O)c(OC)c2)ccc1[O-].[Na+]`, the IC50 [1] was 7.7 µM, the Activity [2] was “inactive” and the Activity [3] was “inactive”. The inhibition in vivo at 100 mg/kg [4] was 40%, the inhibition in vivo at 10 mg/kg [5] was 65.4% and the Activity [6] was “Active”. The inhibition in vivo at 100 mg/kg [7] was 78.8%, the inhibition [8] was “Active” and the inhibition in vivo at 10 mg/kg [9] was 30.8%. The inhibition in vivo at 100 mg/kg [10] was 18.9%, the inhibition in vivo at 3 mg/kg [11] was 39.2% and the inhibition in vivo at 10 mg/kg [12] was 17.2%. The Activity [13] was “inactive”, the inhibition [14] was “Active” and the Activity [15] was 38.4%. For the same compound, the inhibition [16] was “Active”, the inhibition in vivo at 10 mg/kg [17] was 15.4% and the inhibition [18] was “Active”. For the same compound, the Activity [19] was “Non-toxic”, the ED50 [20] was 7.6 mg/kg and the inhibition in vivo at 100 mg/kg [21] was 31.5%. The Activity [22] was “inactive”.
In the case of `CC(=O)OCC(=O)[C@@]12N=C(C)O[C@@H]1C[C@H]1[C@@H]3CCC4=CC(=O)C=C[C@]4(C)[C@H]3[C@@H](O)C[C@@]12C` [DEFLAZACORT], the Activity [23] is reported as 57.1%, the inhibition [8] is reported as “Active” and the inhibition in vivo at 3 mg/kg [24] is reported as 53.3%. The inhibition in vivo at 3 mg/kg [25] was 32.8%, the inhibition in vivo at 100 mg/kg [26] was 30.1% and the inhibition in vivo at 3 mg/kg [27] was 29.2%. For the same compound, the inhibition [18] was “Active” and the inhibition in vivo at 3 mg/kg [28] was 46.2%.

Reference: ChEMBL document CHEMBL3785061, “Evaluation of the anti-inflammatory action of curcumin analog (DM1): Effect on iNOS and COX-2 gene expression and autophagy pathways” (Bioorg Med Chem, 2016)
